The source of these data is patent US8415128B2, “Mitigation of photodamage in analytical reactions” (Pacific Biosciences of California, Inc., priority 2005, dated 2013).

Structures are written as SMILES.

What all share (type): biochemical
The test system of assay [1] is modified φ29 DNA polymerase. The assay can be described thus: Bulk DNA synthesis under laser illumination, agarose gel image scanning. Conditions: dye labeled tetraphosphates (reaction condition 3); 5 minute illumination; 5 mM DTT or 100 mM MEA. The method, then:
In a first assay, synthesis reaction mixtures contained a modified φ29 DNA polymerase, 300 nM DNA template, three native nucleoside triphosphates (at 10 μM each) and a fluorescent dye labeled nucleoside polyphosphate (at 10 μM) in synthesis buffer (50 mM Tris-HCl, pH 7.5, 75 mM KCL, 20 mM (NH4)2SO4, 10 mM BME, 0.7 mM MnCl2). Each of the reactions were carried out at room temperature (22° C.) for the desired illumination period, ranging from 1 minute to one hour.
The experiment included two sets each of three different reaction mixtures: (1) a synthesis reaction using only native, e.g., unlabeled nucleoside triphosphates; (2) a synthesis reaction including two native nucleoside triphosphates, an Alexa 488 labeled dCTP analog, and an Alexa 568 labeled dTTP; and (3) a synthesis reaction including two native nucleoside triphosphates, an Alexa 488 labeled dC4P analog (tetraphosphate), and an Alexa 568 labeled dT4P. Each different synthesis reaction conditions included either no illumination or laser illumination during synthesis for five minutes with wavelengths of 488, 568 and 647 nm, followed by 60 minutes of nonilluminated synthesis. […]
The gel was subjected to image scanning (Molecular Dynamics Typhoon 9400, with Typhoon scanner Control Version 2; gel image quantified with Molecular Dynamiics ImageQuant ver. 5.2). […]

Assay [2] has as its system DNA polymerase immobilized within zero mode waveguides. The assay can be described thus: DNA synthesis in zero mode waveguide arrays with and without laser illumination. Conditions: 160 mM DTT, without MEA; ZMW arrays. On the procedure:
A similar set of experiments to those described above were performed using DNA polymerase immobilized within zero mode waveguides in an array of waveguides. As above, the first experiment was designed to identify whether laser illumination caused damage to immobilized polymerase enzymes on nanostructured surfaces. The surfaces included ZMW arrays in which the polymerase enzyme was adsorbed to the surface. […] The illumination profile is shown in the first panel (far left), while the image of the stained DNA product in the illuminated synthesis is shown in the adjacent panel (middle left). […] The middle right and far right panels show non-illuminated waveguide arrays, and indicate substantially more DNA is present than in the illuminated sample, again showing photo-induced damage to the polymerase activity in the waveguide arrays. FIG. 4B illustrates a first set of waveguide arrays in which similar synthesis reactions were carried out in the presence of no additional mitigation agents (e.g., only 10 mM βME), or in the presence of 5 mM DTT and 100 mM MEA.

Assay [3] has as its system DNA polymerase enzymes. The assay can be described thus: Chromatide incorporation activity after photodamage step on planar glass substrates. Conditions: relative to a non-illuminated control region; Laser Power 2.5 μW/μm^2; baseline 10 mM MEA-Ac, 0.1×GO-Cat, 25 mM Tris-Ascorbate; Trolox at 1 mM, PPD at 100 mM. The method, then: In the experiment, DNA polymerase enzymes were immobilized on planar glass substrates (fused silica microscope slides) and subjected to reaction conditions under which DNA synthesis was taking place. Each reaction mixture also included a baseline level of photodamage mitigating agents (10 mM MEA-Ac, 0.1×GO-Cat, 25 mM Tris-Ascorbate). The reactions were carried out under laser illumination of varying power.
Following the photodamage step, all the solution was washed from the chip and replaced with ordinary buffers and dNTPs. In addition, a base labeled fluorescent nucleotide (chromatide) was added to provide a fluorescent signal of incorporation activity following the photodamage step, above. […] The activity of the enzyme was measured based upon the relative fluorescence of the DNA on the slide.
Table 1, below provides the percent chromatide relative to a non-illuminated control region, for each different additive at the listed laser power.

As for `O[C@H](CS)[C@H](O)CS` (racemic) [DTT, dithiothreitol], the “ratio of product when exposed to laser illumination to that in the absence of such illumination” value in assay [1] worked out at 0.59. The “amount of damaged polymerase activity” value in assay [2] is recorded as “improvements”. With `Cc1cc(C(C)(C)C)c(O)c(C(C)(C)C)c1` [BHT, butylated hydroxytoluene], the “% Chromatide activity” value in assay [3] worked out at 22%. Turning to `C1CN2CCN1CC2` [DABCO, diazobicyclooctane], the “% Chromatide activity” value in assay [3] came out at 20%.

Regarding `NCCS` [MEA, mercaptoethylamine], the “ratio of product when exposed to laser illumination to that in the absence of such illumination” value in assay [1] worked out at 1.04. Take `Nc1ccc(N)cc1` [PPD, p-phenylenediamene]: the “% Chromatide activity” value in assay [3] turned out to be 58%. Turning to `Cc1c(C)c2c(c(C)c1O)CCC(C)(C(=O)O)O2` (stereo not shown) [Trolox], the “% Chromatide activity” value in assay [3] is listed as 41%.
